Series [1] has as its target T1, Human Mineralocorticoid Receptor (hMR) (Homo sapiens, UniProt P08235).
T1 construct: To obtain the full-length hMR cDNA, pB-hMR (i) was digested with XhoI and PvuI; expressed in transfected cells; host or cells: FreeStyle 293 cells transiently transfected with pMCMVneo-hMR; supernatant of the freeze-thaw lysate (hMR lysate)
T1 sequence (P08235 1-984): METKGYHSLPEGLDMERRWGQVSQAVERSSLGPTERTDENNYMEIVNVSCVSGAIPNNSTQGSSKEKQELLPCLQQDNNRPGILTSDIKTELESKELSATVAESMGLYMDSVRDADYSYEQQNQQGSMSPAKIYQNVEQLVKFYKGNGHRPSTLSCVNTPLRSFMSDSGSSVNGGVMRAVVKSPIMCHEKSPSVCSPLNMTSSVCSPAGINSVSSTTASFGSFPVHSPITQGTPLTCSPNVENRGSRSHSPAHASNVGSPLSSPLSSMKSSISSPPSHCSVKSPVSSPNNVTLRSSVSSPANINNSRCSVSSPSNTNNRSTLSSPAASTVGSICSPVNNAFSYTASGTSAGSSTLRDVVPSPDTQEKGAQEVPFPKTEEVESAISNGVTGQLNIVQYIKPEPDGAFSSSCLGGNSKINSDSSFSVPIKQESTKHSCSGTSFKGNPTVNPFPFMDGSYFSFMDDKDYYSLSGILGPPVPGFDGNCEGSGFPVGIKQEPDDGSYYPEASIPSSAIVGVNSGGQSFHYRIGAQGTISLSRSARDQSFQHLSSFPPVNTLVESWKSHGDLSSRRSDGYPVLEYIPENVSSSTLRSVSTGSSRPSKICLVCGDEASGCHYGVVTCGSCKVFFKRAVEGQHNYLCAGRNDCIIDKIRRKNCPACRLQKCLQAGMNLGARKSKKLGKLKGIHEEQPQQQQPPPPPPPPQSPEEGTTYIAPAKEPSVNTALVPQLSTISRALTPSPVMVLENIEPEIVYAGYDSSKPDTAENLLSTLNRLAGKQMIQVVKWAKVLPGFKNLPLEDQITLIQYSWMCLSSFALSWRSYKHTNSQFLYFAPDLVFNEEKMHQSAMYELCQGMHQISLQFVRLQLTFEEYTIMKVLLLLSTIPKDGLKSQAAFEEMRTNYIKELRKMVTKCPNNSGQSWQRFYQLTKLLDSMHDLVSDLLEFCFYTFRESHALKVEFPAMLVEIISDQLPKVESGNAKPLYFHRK
Kind of series: Inhibition of binding of hMR and [3H]-aldosterone (hMR lysate, charcoal separation). To be noted: test compound at 10^−5 M; 10 nM [3H]-aldosterone; hMR lysate; 16 hr at 4° C.; read-out: Inhibition rate (at 10^−5 M). The method, then: The following procedures described in this Example were carried out according to the methods described in Molecular Cloning—Cold Spring Harbor Laboratory (1989) or protocols specified by manufacturers.
(1) Cloning of Human Mineralocorticoid Receptor (hMR) cDNA
hMR cDNA was amplified by polymerase chain reaction (PCR) from human kidney cDNA library. Full-length cDNA was constructed from two fragments of hMR cDNA amplified separately. The primers were designed referring to the nucleotide sequence of hMR cDNA reported by Arriza et. al (Science 1987; 237: 268-275).
The PCR reactions were carried out using PyrobestR® DNA polymerase (Takara). The PCR products were electrophoresed in agarose gel, and 1.7 kb (region (i)) and 1.5 kb (region (ii)) DNA fragments were recovered. Each DNA fragment was inserted into pCR®4Blunt-TOPO® vector (Invitrogen). The resulting plasmids thus obtained were designated as pB-hMR (i) and pB-hMR (ii). To obtain the full-length hMR cDNA, pB-hMR (i) was digested with XhoI and PvuI, and pB-hMR (ii) was digested with PvuI and KpnI, respectively, and the two cDNA fragments were ligated into pBlueScript®IISK+ vector (Stratagene). The resulting plasmid thus obtained was designated as pB-hMR.
pMCMVneo (described in WO03/099793) was digested with XhoI and KpnI, and 5.6 kb fragment was ligated with 2.9 kb hMR cDNA fragment obtained by digestion of pB-hMR (described in above (1)) with XhoI and KpnI. The plasmid thus obtained was designated as pMCMVneo-hMR.
FreeStyle 293 cells were inoculated at 3×10^8 cells in 270 ml FreeStyle™ 293 Expression Medium (Invitrogen) in a 1000 ml Erlenmeyer flask. The cells were treated with 30 ml of the transfection mixture containing 300 μg of pMCMVneo-hMR obtained in above (2) and 400 μl of 293fectin™ Reagent (Invitrogen). The transfected cells were cultivated for 48 hr at 37° C. in 8% CO2 atmosphere at 125 rpm. The cultivated cells were centrifuged and washed with TEG buffer (10 mM Tris-HCl (pH 7.2), 50 mM EDTA, 10% glycerol), and resuspended in 10 ml TEGM buffer (10 mM Tris-HCl (pH 7.2), 1 mM EDTA, 10% glycerol, 1 mM β-mercaptoethanol, 10 mM sodium molybdate, 1 mM dithiothreitol, 2 tablets/100 ml of protease inhibitor cocktail tablets (Roche)). The cell suspension was frozen with liquid nitrogen and thawed on ice, and ultra-centrifuged at 186,000×g for 20 min at 4° C. The supernatant fraction including hMR (hMR lysate) was collected and stored at −80° C.
(4) Measurement of Inhibition Activity Against Binding of hMR and Aldosterone
[^3H]-Aldosterone (Amersham Biosciences) as ligand was added at 10 nM to the reaction mixture including test compound at various concentration and hMR lysate (lot.19: 0.675 mg/mL, lot.20: 0.675 mg/mL, lot.21: 0.765 mg/mL, lot.22: 0.900 mg/mi, lot.23: 0.750 mg/mL) obtained in above (3) and mixture was filled up to 50.5 μl with TEGM buffer. The reaction mixture was incubated for 16 hr at 4° C. and 35 μl of dextran/gelatin coated charcoal suspension (5% charcoal, 0.5% dextran T-70 (Amersham Biosciences), 0.1% gelatin (SIGMA), 10 mM Tris HCl (pH 7.2), 1 mM EDTA) was added thereto to separate bound and free radioactive aldosterone. The mixture containing charcoal was incubated for 10 min at 4° C. and centrifuged at 910×g for 10 min at 4° C.
Radioactivity in 30 μl of the supernatant was measured by TopCount™ (Packard).
For the determination of nonspecific binding, cold Aldosterone instead of drug was added to reaction mixture at 100 μM. Specific binding was determined by subtracting nonspecific binding from total binding.

A word on the inhibition: it is the drop in the measured response relative to a control, in per cent. Usually melting point stands for the temperature of the solid-liquid transition.

A value given as a limit tells only on which side of the number the result lay.

Regarding `Cc1nn(C)c(-c2ccc(F)cc2)c1-c1ccc2c(c1)NC(=O)CO2` [Example 1, 6-[5-(4-Fluorophenyl)-1,3-dimethyl-1H-pyrazol-4-yl]-2H-1,4-benzoxazin-3(4H)-one], in series [1], the inhibition at 10 µM is not below 90%.

For `Cc1nn(CCS(C)(=O)=O)c(-c2ccc(F)cc2)c1-c1ccc2c(c1)NC(=O)CO2` [Example 6, 6-{5-(4-Fluorophenyl)-3-methyl-1-[2-(methylsulfonyl)ethyl]-1H-pyrazol-4-yl}-2H-1,4-benzoxazin-3(4H)-one], the inhibition at 10 µM in series [1] was not below 90%.

Take `Cc1nn(CCC(F)(F)CO)c(-c2ccc(F)cc2)c1-c1ccc2c(c1)NC(=O)CO2` [Example 25, 6-[1-(3,3-Difluoro-4-hydroxybutyl)-5-(4-fluorophenyl)-3-methyl-1H-pyrazol-4-yl]-2H-1,4-benzoxazin-3(4H)-one]: the inhibition at 10 µM in series [1] is not below 90%.

Turning to `CC(=O)OCC(F)(F)Cn1nc(C)c(-c2ccc3c(c2)NC(=O)CO3)c1-c1ccc(F)cc1` [Example 26, 2,2-Difluoro-3-[5-(4-fluorophenyl)-3-methyl-4-(3-oxo-3,4-dihydro-2H-1,4-benzoxazin-6-yl)-1H-pyrazol-1-yl]propyl acetate], the inhibition at 10 µM in series [1] is not below 90%.

The compound `Cc1nn(C)c(-c2ccc(F)cc2)c1-c1cc(Cl)c2c(c1)NC(=O)CO2` [Example 32, 8-Chloro-6-[5-(4-fluorophenyl)-1,3-dimethyl-1H-pyrazol-4-yl]-2H-1,4-benzoxazin-3(4H)-one] showed a melting point of 260.2 to 260.5 °C.

Consider `Cc1nn(CC(C)(F)F)c(-c2ccc(F)cc2)c1-c1ccc2c(c1)NC(=O)CO2` [Example 83, 6-[1-(2,2-Difluoropropyl)-5-(4-fluorophenyl)-3-methyl-1H-pyrazol-4-yl]-2H-1,4-benzoxazin-3(4H)-one], for which the inhibition at 10 µM in series [1] is not below 90%.

Regarding `CC(=O)Cn1nc(C)c(-c2ccc3c(c2)NC(=O)CO3)c1-c1ccc(F)cc1` [Example 87, 6-[5-(4-Fuorophenyl)-3-methyl-1-(2-oxopropyl)-1H-pyrazol-4-yl]-2H-1,4-benzoxazin-3(4H)-one], in series [1], the inhibition at 10 µM was not below 90%.

With `Cc1nn(CC(F)(F)CO)c(-c2ccc(F)cc2)c1-c1ccc2c(c1)NC(=O)CO2` [Example 109, 6-[1-(2,2-Difluoro-3-hydroxypropyl)-5-(4-fluorophenyl)-3-methyl-1H-pyrazol-4-yl]-2H-1,4-benzoxazin-3(4H)-one], the inhibition at 10 µM in series [1] was not below 90%.

Take `Cc1nn(CC(C)(C)CO)c(-c2ccc(F)cc2)c1-c1ccc2c(c1)NC(=O)CO2` [Example 125, 6-[5-(4-Fluorophenyl)-1-(3-hydroxy-2,2-dimethylpropyl)-3-methyl-1H-pyrazol-4-yl]-2H-1,4-benzoxazin-3(4H)-one]: the inhibition at 10 µM in series [1] is not below 90%.

For the compound `Cc1nn(CC(F)(F)CO)c(-c2ccc(F)cc2)c1-c1ccc2c(c1C)NC(=O)CO2` [Example 128, 6-[1-(2,2-Difluoro-3-hydroxypropyl)-5-(4-fluorophenyl)-3-methyl-1H-pyrazol-4-yl]-5-methyl-2H-1,4-benzoxazin-3(4H)-one], in series [1], the inhibition at 10 µM is not below 90%.

Take `Cc1nn(Cc2cccnc2)c(-c2ccc(F)cc2)c1-c1ccc2c(c1)NC(=O)CO2` [Example 135, 6-[5-(4-Fluorophenyl)-3-methyl-1-(pyridin-3-ylmethyl)-1H-pyrazol-4-yl]-2H-1,4-benzoxazin-3(4H)-one]: in series [1], the inhibition at 10 µM is not below 90%.

As to `Cc1nn(CC2CCOC2)c(-c2ccc(F)cc2)c1-c1ccc2c(c1)NC(=O)CO2` (stereo not drawn) [Example 146, 6-[5-(4-Fluorophenyl)-3-methyl-1-(tetrahydrofuran-3-ylmethyl)-1H-pyrazol-4-yl]-2H-1,4-benzoxazin-3(4H)-one], the inhibition at 10 µM in series [1] is not below 90%.

For the compound `Cc1nn(C[C@@H]2CCC(=O)O2)c(-c2ccc(F)cc2)c1-c1ccc2c(c1)NC(=O)CO2` [Example 159, 6-[5-(4-Fluorophenyl)-3-methyl-1-{[(2S)-5-oxotetrahydrofuran-2-yl]methyl}-1H-pyrazol-4-yl]-2H-1,4-benzoxazin-3(4H)-one], the inhibition at 10 µM in series [1] was not below 90%.

The compound `[2H]C1([2H])Oc2ccc(-c3c(C)nn(CC(C)(F)F)c3-c3ccc(F)cc3)cc2NC1=O` [Example 174] had a melting point of 205 to 206 °C.

As to `CCOC(=O)CCC(=O)OCC(F)(F)Cn1nc(C)c(-c2ccc3c(c2)NC(=O)CO3)c1-c1ccc(F)cc1` [Example 185, 2,2-Difluoro-3-[5-(4-fluorophenyl)-3-methyl-4-(3-oxo-3,4-dihydro-2H-1,4-benzoxazin-6-yl)-1H-pyrazol-1-yl]propyl ethyl butanedioate], the melting point amounted to 100 °C.

`CCCCCCCCCCCCCCCC(=O)OCC(F)(F)Cn1nc(C)c(-c2ccc3c(c2)NC(=O)CO3)c1-c1ccc(F)cc1` [Example 186, 2,2-Difluoro-3-[5-(4-fluorophenyl)-3-methyl-4-(3-oxo-3,4-dihydro-2H-1,4-benzoxazin-6-yl)-1H-pyrazol-1-yl]propyl hexadecanoate]: the melting point came out at 106 °C.

Consider `CCOC(=O)OCC(F)(F)Cn1nc(C)c(-c2ccc3c(c2)NC(=O)CO3)c1-c1ccc(F)cc1` [Example 187, 2,2-Difluoro-3-[5-(4-fluorophenyl)-3-methyl-4-(3-oxo-3,4-dihydro-2H-1,4-benzoxazin-6-yl)-1H-pyrazol-1-yl]propyl ethyl carbonate], for which the melting point amounted to 142 °C.

The compound `CNC(=O)OCC(F)(F)Cn1nc(C)c(-c2ccc3c(c2)NC(=O)CO3)c1-c1ccc(F)cc1` [Example 198, 2,2-Difluoro-3-[5-(4-fluorophenyl)-3-methyl-4-(3-oxo-3,4-dihydro-2H-1,4-benzoxazin-6-yl)-1H-pyrazol-1-yl]propyl methylcarbamate] displayed a melting point of 112 °C.

The record behind these values is US20100094000A1, “PYRAZOLE COMPOUNDS” (TAKEDA PHARMACEUTICAL COMPANY LIMITED, priority 2008, published 2010).
